Measurements as given in patent US10632171B2, “Melanocortin receptor-specific peptides” (Palatin Technologies, Inc., priority 2009, dated 2020).
Peptide text beside a SMILES is read from it.

Tests used:
hMC4-R [1] = molecular target: T1, hMC4-R (Homo sapiens (Human), UniProt P32245); test: Competitive inhibition binding assay using [I125]-NDP-α-MSH; settings: averaged; determined using [I125]-NDP-α-MSH (values not marked *); read-out: MC4-R Ki
Procedure: A competitive inhibition binding assay is performed using membrane homogenates prepared from HEK-293 cells that express recombinant hMC4-R, hMC3-R, or hMC5-R, and from B-16 mouse melanoma cells (containing endogenous MC1-R). In some instances, HEK-293 cells that express recombinant hMC1-R were employed. In the examples that follow, all MC3-R, MC4-R and MC5-R values are for human recombinant receptors. […] Membrane homogenates were incubated with 0.2 nM (for hMC4-R) 0.4 nM (for MC3-R and MC5-R) or 0.1 nM (for mouse B16 MC1-R or hMC1-R) [I^125]-NDP-α-MSH (Perkin Elmer) and increasing concentrations of test peptides of the present invention in buffer containing 25 mM HEPES buffer (pH 7.5) with 100 mM NaCl, 2 mM CaCl2, 2 mM MgCl2, 0.3 mM 1,10-phenanthroline, and 0.2% bovine serum albumin. After incubation for 60 minutes at 37° C., the assay mixture was filtered and the membranes washed three times with ice-cold buffer. Filters were dried and counted in a gamma counter for bound radioactivity. […] Maximal specific binding (100%) was defined as the difference in radioactivity (cpm) bound to cell membranes in the absence and presence of 1 μM NDP-α-MSH. […] Each assay was conducted in triplicate and the actual mean values are described, with results less than 0% reported as 0%. Ki values for test peptides of the present invention were determined using Graph-Pad Prism® curve-fitting software.

hMC4-R [2] = molecular target: T1, hMC4-R; test: Competitive binding assay using Eu-NDP-α-MSH; settings: averaged; determined using Eu-NDP-α-MSH (values marked *); read-out: MC4-R Ki
Procedure: Alternatively, a competitive inhibition binding assay was performed employing Eu-NDP-α-MSH (PerkinElmer Life Sciences catalog No. AD0225) with determination by time-resolved fluorometry (TRF) of the lanthanide chelate. […] After incubation for 90 minutes at 37° C., the reaction was stopped by filtration over AcroWell 96-well filter plates (Pall Life Sciences). The filter plates were washed 4 times with 200 μL of ice-cold phosphate-buffered saline. DELFIA Enhancement solution (PerkinElmer Life Sciences) was added to each well. […] Each assay was conducted in duplicate and mean values were utilized. Ki values were determined by curve-fitting with Graph-Pad Prism® software using a one-site fixed-slope competition binding model.

T1 sequence (P32245 whole entry): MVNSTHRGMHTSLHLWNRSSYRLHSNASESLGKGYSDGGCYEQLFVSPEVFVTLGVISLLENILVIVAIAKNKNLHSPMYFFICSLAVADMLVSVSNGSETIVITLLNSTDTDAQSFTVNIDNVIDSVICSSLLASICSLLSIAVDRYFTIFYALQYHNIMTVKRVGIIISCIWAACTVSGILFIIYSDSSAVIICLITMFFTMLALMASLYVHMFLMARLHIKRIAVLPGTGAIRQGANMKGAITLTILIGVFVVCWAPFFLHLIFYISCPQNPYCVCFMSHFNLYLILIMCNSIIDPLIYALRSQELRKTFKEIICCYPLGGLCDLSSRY

Ki (hMC4-R [1]) [nM]	Ki (hMC4-R [2]) [nM]	Structure (SMILES)
873		CC(=O)N[C@@H](CCCNC(=N)N)C(=O)N[C@H]1CC(=O)NCCCC[C@@H](C(N)=O)NC(=O)[C@H](Cc2c[nH]c3ccccc23)NC(=O)[C@H](CCCNC(N)=O)NC(=O)[C@@H](Cc2ccccc2)NC(=O)[C@H](CCCCN)NC1=O [compound 116, Ac-Arg-cyclo(Asp-Lys- D-Phe-Cit-Trp-Lys)-NH2] (HELM PEPTIDE1{[ac].R.D.K.[dF].[Cit].W.K.[am]}$PEPTIDE1,PEPTIDE1,3:R3-8:R3$$$V2.0)
3		CC(=O)N[C@@H](CCCNC(=N)N)C(=O)N[C@H]1CC(=O)NCCCC[C@@H](C(N)=O)NC(=O)[C@H](Cc2c[nH]c3ccccc23)NC(=O)[C@H](CCCNC(=N)N)NC(=O)[C@@H](Cc2ccccc2)NC(=O)[C@@H]2C[C@@H](O)CN2C1=O [compound 101, Ac-Arg-cyclo(Glu-Hyp- D-Phe-Arg-Trp-Orn)- NH2]
	144	CC(=O)N[C@@H](CCCNC(=N)N)C(=O)N[C@H]1CC(=O)NCCCC[C@@H](C(=O)O)NC(=O)[C@H](Cc2c[nH]c3ccccc23)NC(=O)[C@H](CCCNC(=N)N)NC(=O)[C@@H](Cc2ccccc2)NC(=O)[C@H](C)NC1=O [compound 52, Ac-Arg-cyclo(Asp-Ala- D-Phe-Arg-Trp-Lys)-OH] (HELM PEPTIDE1{[ac].R.D.A.[dF].R.W.K}$PEPTIDE1,PEPTIDE1,3:R3-8:R3$$$V2.0)
